One assay concerns guinea-pig ureters. In words: Antispastic activity in vitro: spontaneous motility of guinea-pig ureters. Particulars: for IC50: Cavia porcellus. An excerpt: The isotonic contractions were detected by means of a force transducer and recorded. […] A given concentration of the product under test was then introduced into the bath and left in contact with the prepared specimen for five minutes, after which the ureter was washed until its own spontaneous activity was re-established.

In assay [1] the target is T1, central CCK-B receptors (guinea pig cortical membrane) (Cavia porcellus, UniProt H0VZC5).
T1 construct: Cerebral cortices of white male guinea pigs were therefore used; from tissue; host or cells: guinea pig cerebral cortex membranes
T1 sequence (H0VZC5 1-426): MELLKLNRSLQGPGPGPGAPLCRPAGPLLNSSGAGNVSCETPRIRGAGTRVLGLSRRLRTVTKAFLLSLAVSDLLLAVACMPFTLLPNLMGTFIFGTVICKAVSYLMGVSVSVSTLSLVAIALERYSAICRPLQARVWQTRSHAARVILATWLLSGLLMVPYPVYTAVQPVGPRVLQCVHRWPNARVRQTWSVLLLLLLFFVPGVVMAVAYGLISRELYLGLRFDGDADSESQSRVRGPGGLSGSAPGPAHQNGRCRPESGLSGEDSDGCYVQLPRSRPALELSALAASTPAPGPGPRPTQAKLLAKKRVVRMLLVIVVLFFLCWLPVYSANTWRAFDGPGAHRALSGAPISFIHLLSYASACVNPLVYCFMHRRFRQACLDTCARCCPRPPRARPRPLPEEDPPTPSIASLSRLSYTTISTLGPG
As to the kind of experiment: Inhibition of binding of (3-H)[N-methyl-N-leucine]CCK-8 to guinea pig cortical membranes (anti-CCK-B). The protocol: Cerebral cortices of white male guinea pigs were therefore used, according to the method mentioned above, so as to obtain a membrane content/ml corresponding to about 300 mcg of proteins/mi. The membranes were incubated together with the radioactive tracer and the compounds under test for 150 minutes at 25° C. After the supernatant liquid had been discarded, the radioactivity associated with the pellet was determined with a liquid scintillator.

Where [2] appears, read: force of the contractions, five minutes contact, 37° C., read-out: IC50 (force), inhibition of the spontaneous motility of guinea-pig ureters in vitro.
The mark [3] stands for this setting: frequency of the contractions, five minutes contact, 37° C., read-out: IC50 (frequency), inhibition of the spontaneous motility of guinea-pig ureters in vitro.
The mark [4] stands for this setting: IC50, inhibition of binding of (3-H)[N-methyl-N-leucine]CCK-8 to the guinea pig cortical membrane, 150 minutes at 25° C.

The term IC50 denotes the midpoint of a concentration-inhibition curve.

Converted amounts (≈) assume the structure as drawn. Where two headings read alike, the source gives them in different places.

As to `CCCCCN(CCCCC)C(=O)[C@H](CCC(=O)NCCN1CCOCC1)NC(=O)c1ccc(C)c(C)c1` [Compound 46], the “activity on guinea-pig ureters (in words)” value in the assay with guinea-pig ureters is on record as “extremely active”. The IC50 in the assay with guinea-pig ureters (setting [2]) amounted to 1.6 µg/mL (≈ 3.01 µM). Further, the IC50 in the assay with guinea-pig ureters (setting [3]) worked out at 1.5 µg/mL (≈ 2.83 µM). In the assay with guinea-pig ureters (guinea-pig ureters), the “activity relative to Verapamil” value is on record as “about twice”; the “times more active than Papaverine and Flavexate” value is reported as “about 20 times”.
`CCCCCN(CCCCC)C(=O)C(CCC(=O)NCCN1CCOCC1)NC(=O)c1ccc(C)cc1` (stereo not shown) [Compound 33]: the figures for the IC50 in the assay on guinea-pig ureters (setting [2]) and in the assay on guinea-pig ureters (setting [3]) were 18 µg/mL (≈ 34.8 µM) and 16 µg/mL (≈ 31 µM), respectively.
Turning to `CCCCCN(CCCCC)C(=O)C(CCC(=O)NCCN1CCOCC1)NC(=O)c1ccccc1` (stereo not shown) [Compound 32], the concentration for half-maximal inhibition (IC50) with guinea-pig ureters (setting [3]) turned out to be 22 µg/mL (≈ 43.8 µM).
Molecule `CSCC[C@H](NC(=O)[C@H](Cc1c[nH]c2ccccc12)NC(=O)CCNC(=O)OC(C)(C)C)C(=O)N[C@@H](CC(=O)O)C(=O)N[C@@H](Cc1ccccc1)C(N)=O` [pentagastrin, reference compound] displayed an IC50 in assay [1] of 0.003 µM.
Take `COc1ccc(CCN(C)CCCC(C#N)(c2ccc(OC)c(OC)c2)C(C)C)cc1OC` (stereo not shown) [Verapamil, reference compound]: the half-inhibitory concentration (IC50) in the assay with guinea-pig ureters (read-out: IC50 (force), inhibition of the spontaneous motility of guinea-pig ureters in vitro) was determined as 3 µg/mL (≈ 6.6 µM); in the assay with guinea-pig ureters (read-out: IC50 (frequency), inhibition of the spontaneous motility of guinea-pig ureters in vitro), 2.2 µg/mL (≈ 4.84 µM).
On to `CN1CCN(C(=O)CC[C@@H](NC(=O)c2cccc(Cl)c2)C(=O)N2CCC3(CCCC3)CC2)CC1` [Compound 7], for which the half-maximal inhibitory concentration (IC50) in assay [1] (setting [4]) stood at 6.5 µM.
On to `CCCCCN(CCCOC)C(=O)C(CCC(=O)NCCN1CCOCC1)NC(=O)c1ccc(C)c(C)c1` (stereo not shown) [Compound 64], for which, in the assay with guinea-pig ureters (setting [2]), the IC50 stood at 59 µg/mL (≈ 111 µM).
`CCCCN(CCCC)C(=O)C(CCC(=O)NCCCN1CCOCC1)NC(=O)c1ccc(C)c(C)c1` (stereo not shown) [Compound 29]: the IC50 in the assay on guinea-pig ureters (setting [2]) was 18 µg/mL (≈ 34.8 µM); in the assay on guinea-pig ureters (setting [3]), 17 µg/mL (≈ 32.9 µM).
Regarding `CCCCCN(CCCCC)C(=O)C(CCC(=O)NCCN1CCOCC1)NC(=O)c1ccc(C#N)cc1` (stereo not shown) [Compound 34], the IC50 in the assay on guinea-pig ureters (setting [2]) and in the assay with guinea-pig ureters (setting [3]) was 12 µg/mL (≈ 22.7 µM) throughout.
`CN(C)CCNC(=O)CC[C@@H](NC(=O)c1cc(Cl)cc(Cl)c1)C(=O)N1CCC2(CCCC2)CC1` [Compound 4]: the IC50 in assay [1] (setting [4]) amounted to 12.5 µM; in the assay on guinea-pig ureters (setting [3]), 121 µg/mL (≈ 237 µM).
Take `CCCCCN(CCCCC)C(=O)C(CCC(=O)NCCN1CCCCC1)NC(=O)c1ccc(C)c(C)c1` (stereo not shown) [Compound 55]: the concentration for half-maximal inhibition (IC50) in assay [1] (setting [4]) was > 100 µM; in the assay on guinea-pig ureters (setting [2]), 11 µg/mL (≈ 20.8 µM); in the assay on guinea-pig ureters (setting [3]), 18 µg/mL (≈ 34 µM).
In the case of `Cc1c(-c2ccccc2)oc2c(C(=O)OCCN3CCCCC3)cccc2c1=O` [Flavoxate, reference compound], the half-maximal inhibitory concentration (IC50) in the assay on guinea-pig ureters (setting [2]) came out at 29 µg/mL (≈ 74.1 µM).
Turning to `CCCCCN(CCCCC)C(=O)[C@@H](CCC(=O)NCCN1CCOCC1)NC(=O)c1ccc(C)c(C)c1` [Compound 45], the half-inhibitory concentration (IC50) was determined as 8 µg/mL (≈ 15.1 µM) in the assay on guinea-pig ureters (setting [2]) and 6 µg/mL (≈ 11.3 µM) in the assay with guinea-pig ureters (setting [3]).
For `CCCCCN(CCCCC)C(=O)C(CCC(=O)NCCCN1CCOCC1)NC(=O)c1ccc(C)c(C)c1` (stereo not shown) [Compound 47] the same measures were 12 µg/mL (≈ 22 µM) and 15 µg/mL (≈ 27.5 µM).
As for `CCCCN(CCCC)C(=O)C(CCC(=O)NCCCN(C)C)NC(=O)c1ccc(C)c(C)c1` (stereo not shown) [Compound 27], in the assay with guinea-pig ureters (setting [2]), the IC50 was 33 µg/mL (≈ 69.5 µM).

These data come from patent publication US5587479A, “Basic derivatives of glutamic acid and aspartic acid as gastrin or cholecystokinin antagonists” (priority 1992, dated 1996).
